# Like-named read-outs stand apart in the source and are kept apart here.
# Key:
# CB1 receptor [1] = molecular target: T1, CB1 receptor (Homo sapiens, UniProt P21554); assay type: binding
# CB1 receptor [2] = conditions: ref Terry et al., 2010, cited from earlier work; for Specific binding (%) / VT (striatum) Baseline / VT (striatum) Preblocked: monkey striatum
# CB1 receptor [3] = molecular target: T1, CB1 receptor; conditions: cited from earlier work; for VT / Intersubject Variability of VT (SD/mean): human; for VT: mean±SD
# Lipophilicity LogD7.4 = assay type: physicochemical; conditions: n-octanol / 0.15 M sodium phosphate buffer pH 7.4, room temperature, 6 measurements
# [4] = human parietal cortex, displacement of [3H]MePPEP, n=6
# [5] = Frontal, n=17, 150min, ref Terry et al, 2009
# [6] = Putamen, n=17, 150min, ref Terry et al, 2009
# [7] = Thalamus, n=17, 150min, ref Terry et al, 2009
# [8] = Cingulate, n=10, 90min, ref Wong et al, 2010
# [9] = Globus pallidus, n=10, 90min, ref Wong et al, 2010
# [10] = Putamen, n=10, 90min, ref Wong et al, 2010
# [11] = Frontal, n=9, 120min, ref Terry et al., 2010
# [12] = Putamen, n=9, 120min, ref Terry et al., 2010
# [13] = Thalamus, n=9, 120min, ref Terry et al., 2010
# T1 sequence (P21554 whole entry): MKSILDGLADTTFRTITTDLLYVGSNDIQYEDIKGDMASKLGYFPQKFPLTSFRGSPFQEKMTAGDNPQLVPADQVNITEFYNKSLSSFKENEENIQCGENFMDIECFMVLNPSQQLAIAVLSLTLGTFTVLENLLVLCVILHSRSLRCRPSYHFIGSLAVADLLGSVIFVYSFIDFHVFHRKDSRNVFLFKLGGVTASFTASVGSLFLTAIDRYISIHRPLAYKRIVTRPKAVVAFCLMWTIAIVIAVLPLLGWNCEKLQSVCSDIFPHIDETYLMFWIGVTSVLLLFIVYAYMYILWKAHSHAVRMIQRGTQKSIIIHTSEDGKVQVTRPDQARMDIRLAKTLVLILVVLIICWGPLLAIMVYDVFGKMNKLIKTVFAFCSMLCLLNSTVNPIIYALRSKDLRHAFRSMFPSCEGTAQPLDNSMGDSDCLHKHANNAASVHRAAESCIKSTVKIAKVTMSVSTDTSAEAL
structure (smiles),measurement,setting,value
COc1ccc(-c2c(C#N)c(C(=O)NN3CCCCC3)nn2-c2ccc(Cl)cc2Cl)cc1 [OMAR],Ki,CB1 receptor [1]; [4],2.05 nM
C[C@@H](N[C@@H]1C[C@H](c2cccc(O[11CH3])c2)N(c2ccc(C(F)(F)F)cc2)C1=O)c1ccccc1 [^11C-MePPEP],Specific binding (%),CB1 receptor [2],88%
same,VT (striatum) Baseline,CB1 receptor [2],24.3 mL·cm^−3
same,VT (striatum) Preblocked,CB1 receptor [2],2.9 mL·cm^−3
same,VT,CB1 receptor [3]; [5],22.4±12.8 mL · cm^−3
same,Intersubject Variability of VT (SD/mean),CB1 receptor [3]; [5],57%
same,VT,CB1 receptor [3]; [6],29.1±17.4 mL · cm^−3
same,Intersubject Variability of VT (SD/mean),CB1 receptor [3]; [6],60%
same,VT,CB1 receptor [3]; [7],11.2±5.0 mL · cm^−3
same,Intersubject Variability of VT (SD/mean),CB1 receptor [3]; [7],44%
same,LogD7.4,Lipophilicity LogD7.4,4.77±0.27
COc1ccc(-c2c(C#N)c(C(=O)NN3CCCCC3)nn2-c2ccc(Cl)cc2Cl)cc1 [^11C-OMAR],Ki,CB1 receptor [1],2.05 nM
same,VT,CB1 receptor [3]; [8],1.23±0.16 mL · cm^−3
same,Intersubject Variability of VT (SD/mean),CB1 receptor [3]; [8],13%
same,VT,CB1 receptor [3]; [9],1.47±0.25 mL · cm^−3
same,Intersubject Variability of VT (SD/mean),CB1 receptor [3]; [9],17%
same,VT,CB1 receptor [3]; [10],1.32±0.20 mL · cm^−3
same,Intersubject Variability of VT (SD/mean),CB1 receptor [3]; [10],15%
"N#Cc1ccc(S(=O)(=O)NC(=N)N2CC(c3ccccc3)C(c3ccc(Cl)cc3)=N2)cc1 (stereo not drawn) [^11C-SD5024, [cyano-^11C](−)-3-(4-chlorophenyl)-N-[(4-cyanophenyl)sulfonyl]-4-phenyl-4,5-dihydro-1H-pyrazole-1-carboxamidine]",Ki,CB1 receptor [1]; [4],0.47 nM
[2H]C([18F])Oc1cccc([C@H]2C[C@@H](N[C@H](C)c3ccccc3)C(=O)N2c2ccc(C(F)(F)F)cc2)c1 (stereo partly shown) [^18F-FMPEP-d2],percentage of specific binding in monkey brain,CB1 receptor [2]; monkey brain,85%
same,Specific binding (%),CB1 receptor [2],85%
same,VT (striatum) Baseline,CB1 receptor [2],35.4 mL·cm^−3
same,VT (striatum) Preblocked,CB1 receptor [2],5.4 mL·cm^−3
same,VT,CB1 receptor [3]; [11],22.7±6.4 mL · cm^−3
same,Intersubject Variability of VT (SD/mean),CB1 receptor [3]; [11],28%
same,VT,CB1 receptor [3]; [12],24.3±7.2 mL · cm^−3
same,Intersubject Variability of VT (SD/mean),CB1 receptor [3]; [12],29%
same,VT,CB1 receptor [3]; [13],9.6±2.5 mL · cm^−3
same,Intersubject Variability of VT (SD/mean),CB1 receptor [3]; [13],26%
same,peak brain uptake,"CB1 receptor [3]; species not given, ref Terry et al., 2010",~ 6 SUV
same,LogD7.4,Lipophilicity LogD7.4,4.24±0.08
Cc1ccc(OC(C)(C)C(=O)N[C@@H](C)[C@@H](Cc2ccc(OCCF)cc2)c2cccc(C#N)c2)nc1 [^18F-MK-9470],Intersubject Variability of VT (SD/mean),"CB1 receptor [3]; Frontal, n=12, 700, 360, 150min, ref Sanabria-Bohórquez et al., 2010",58%
same,Intersubject Variability of VT (SD/mean),"CB1 receptor [3]; Putamen, n=12, 700, 360, 150min, ref Sanabria-Bohórquez et al., 2010",53%
same,Intersubject Variability of VT (SD/mean),"CB1 receptor [3]; Thalamus, n=12, 700, 360, 150min, ref Sanabria-Bohórquez et al., 2010",60%
